In PubChem BioAssay (NCI):
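Where inhibition never reached the appropriate level, the endpoint shown equals the highest concentration tested. Otherwise, values were interpolated linearly from a five-concentration, 48-hour dose response in 96-well plates. Definition used: TGI = concentration required for complete inhibition of growth.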

How the values were obtained:
Assay in all cases: NCI-60 cell line screen, 48 h
MOLT-4 leukemia = tested on: MOLT-4 leukemia
OVCAR-5 ovarian = tested on: OVCAR-5 ovarian
NCI-H226 lung = tested on: NCI-H226 lung
COLO 205 colon = tested on: COLO 205 colon
BT-549 breast = tested on: BT-549 breast
SF-295 CNS = tested on: SF-295 CNS
CAKI-1 renal = tested on: CAKI-1 renal
ACHN renal = tested on: ACHN renal
HCT-116 colon = tested on: HCT-116 colon
SK-MEL-2 melanoma = tested on: SK-MEL-2 melanoma
UACC-257 melanoma = tested on: UACC-257 melanoma
SW-620 colon = tested on: SW-620 colon
HCT-15 colon = tested on: HCT-15 colon
U251 CNS = tested on: U251 CNS
PC-3 prostate = tested on: PC-3 prostate
OVCAR-4 ovarian = tested on: OVCAR-4 ovarian
NCI-H23 lung = tested on: NCI-H23 lung
SK-OV-3 ovarian = tested on: SK-OV-3 ovarian
A498 renal = tested on: A498 renal
UO-31 renal = tested on: UO-31 renal
HS 578T breast = tested on: HS 578T breast
TK-10 renal = tested on: TK-10 renal
EKVX NSCLC = tested on: EKVX NSCLC
HOP-62 NSCLC = tested on: HOP-62 NSCLC
MCF7 breast = tested on: MCF7 breast
A549 NSCLC = tested on: A549 NSCLC
MDA-N = tested on: MDA-N
SN12C renal = tested on: SN12C renal
DU-145 prostate = tested on: DU-145 prostate
SF-539 CNS = tested on: SF-539 CNS
HCC-2998 colon = tested on: HCC-2998 colon
RPMI-8226 leukemia = tested on: RPMI-8226 leukemia
UACC-62 melanoma = tested on: UACC-62 melanoma
MDA-MB-435 = tested on: MDA-MB-435
MALME-3M melanoma = tested on: MALME-3M melanoma
OVCAR-8 ovarian = tested on: OVCAR-8 ovarian
T-47D breast = tested on: T-47D breast
M14 melanoma = tested on: M14 melanoma
SF-268 CNS = tested on: SF-268 CNS
SNB-19 CNS = tested on: SNB-19 CNS
OVCAR-3 ovarian = tested on: OVCAR-3 ovarian
MDA-MB-231 breast = tested on: MDA-MB-231 breast
CCRF-CEM leukemia = tested on: CCRF-CEM leukemia
NCI/ADR-RES ovarian = tested on: NCI/ADR-RES ovarian
RXF 393 renal = tested on: RXF 393 renal
SK-MEL-28 melanoma = tested on: SK-MEL-28 melanoma
SK-MEL-5 melanoma = tested on: SK-MEL-5 melanoma
SNB-75 CNS = tested on: SNB-75 CNS
KM12 colon = tested on: KM12 colon
HT29 colon = tested on: HT29 colon
IGROV1 ovarian = tested on: IGROV1 ovarian
SR leukemia = tested on: SR leukemia
K-562 leukemia = tested on: K-562 leukemia
786-0 renal = tested on: 786-0 renal
NCI-H460 lung = tested on: NCI-H460 lung
HOP-92 NSCLC = tested on: HOP-92 NSCLC
NCI-H522 lung = tested on: NCI-H522 lung
LOX IMVI melanoma = tested on: LOX IMVI melanoma

In the case of Cc1cn(C2CC(O)C(Cn3cc(Cn4nc(Br)c(=O)[nH]c4=O)nn3)O2)c(=O)[nH]c1=O (stereo not given), the TGI (MOLT-4 leukemia) is reported as > 100 µM, the TGI (OVCAR-5 ovarian) is reported as > 100 µM and the TGI (NCI-H226 lung) is reported as > 100 µM. For the same compound, the TGI (COLO 205 colon) was > 100 µM, the TGI (BT-549 breast) was > 100 µM and the TGI (SF-295 CNS) was > 100 µM. The TGI (CAKI-1 renal) was > 100 µM, the TGI (ACHN renal) was > 100 µM and the TGI (HCT-116 colon) was > 100 µM. The TGI (SK-MEL-2 melanoma) was > 100 µM, the TGI (UACC-257 melanoma) was > 100 µM and the TGI (SW-620 colon) was > 100 µM. The TGI (HCT-15 colon) was > 100 µM, the TGI (U251 CNS) was > 100 µM and the TGI (PC-3 prostate) was > 100 µM. The TGI (OVCAR-4 ovarian) was > 100 µM, the TGI (NCI-H23 lung) was > 100 µM and the TGI (SK-OV-3 ovarian) was > 100 µM. The TGI (A498 renal) was > 100 µM, the TGI (UO-31 renal) was > 100 µM and the TGI (HS 578T breast) was > 100 µM. The TGI (TK-10 renal) was > 100 µM, the TGI (EKVX NSCLC) was > 100 µM and the TGI (HOP-62 NSCLC) was > 100 µM. For the same compound, the TGI (MCF7 breast) was > 100 µM, the TGI (A549 NSCLC) was > 100 µM and the TGI (MDA-N) was > 100 µM. The TGI (SN12C renal) was > 100 µM, the TGI (DU-145 prostate) was > 100 µM and the TGI (SF-539 CNS) was > 100 µM. For the same compound, the TGI (HCC-2998 colon) was > 100 µM, the TGI (RPMI-8226 leukemia) was > 100 µM and the TGI (UACC-62 melanoma) was > 100 µM. The TGI (MDA-MB-435) was > 100 µM, the TGI (MALME-3M melanoma) was > 100 µM and the TGI (OVCAR-8 ovarian) was > 100 µM. For the same compound, the TGI (T-47D breast) was > 100 µM, the TGI (M14 melanoma) was > 100 µM and the TGI (SF-268 CNS) was > 100 µM. For the same compound, the TGI (SNB-19 CNS) was > 100 µM, the TGI (OVCAR-3 ovarian) was > 100 µM and the TGI (MDA-MB-231 breast) was > 100 µM. For the same compound, the TGI (CCRF-CEM leukemia) was 14.3 µM, the TGI (NCI/ADR-RES ovarian) was > 100 µM and the TGI (RXF 393 renal) was > 100 µM. For the same compound, the TGI (SK-MEL-28 melanoma) was > 100 µM, the TGI (SK-MEL-5 melanoma) was > 100 µM and the TGI (SNB-75 CNS) was > 100 µM. For the same compound, the TGI (KM12 colon) was > 100 µM.
In the case of C[N+](C)(C)c1nc(N)nc2c1ncn2C1OC(CO)C(O)C1O (stereo not given), the TGI (MOLT-4 leukemia) is reported as > 100 µM, the TGI (OVCAR-5 ovarian) is reported as > 100 µM and the TGI (COLO 205 colon) is reported as > 100 µM. The TGI (BT-549 breast) was > 100 µM, the TGI (CAKI-1 renal) was > 100 µM and the TGI (ACHN renal) was > 100 µM. For the same compound, the TGI (HT29 colon) was > 100 µM, the TGI (HCT-116 colon) was > 100 µM and the TGI (IGROV1 ovarian) was > 100 µM. The TGI (SR leukemia) was > 100 µM, the TGI (SK-MEL-2 melanoma) was > 100 µM and the TGI (UACC-257 melanoma) was > 100 µM. The TGI (SW-620 colon) was > 100 µM, the TGI (K-562 leukemia) was > 100 µM and the TGI (786-0 renal) was > 100 µM. The TGI (HCT-15 colon) was > 100 µM, the TGI (U251 CNS) was > 100 µM and the TGI (PC-3 prostate) was > 100 µM. For the same compound, the TGI (NCI-H460 lung) was > 100 µM, the TGI (OVCAR-4 ovarian) was > 100 µM and the TGI (HOP-92 NSCLC) was > 100 µM. For the same compound, the TGI (NCI-H522 lung) was > 100 µM, the TGI (NCI-H23 lung) was > 100 µM and the TGI (SK-OV-3 ovarian) was > 100 µM. For the same compound, the TGI (A498 renal) was > 100 µM, the TGI (UO-31 renal) was > 100 µM and the TGI (HS 578T breast) was > 100 µM. For the same compound, the TGI (TK-10 renal) was > 100 µM, the TGI (EKVX NSCLC) was > 100 µM and the TGI (HOP-62 NSCLC) was > 100 µM. The TGI (MCF7 breast) was > 100 µM, the TGI (A549 NSCLC) was > 100 µM and the TGI (MDA-N) was > 100 µM. For the same compound, the TGI (SN12C renal) was > 100 µM, the TGI (DU-145 prostate) was > 100 µM and the TGI (SF-539 CNS) was > 100 µM. The TGI (HCC-2998 colon) was > 100 µM, the TGI (RPMI-8226 leukemia) was > 100 µM and the TGI (UACC-62 melanoma) was > 100 µM. For the same compound, the TGI (MDA-MB-435) was > 100 µM, the TGI (LOX IMVI melanoma) was > 100 µM and the TGI (MALME-3M melanoma) was > 100 µM. For the same compound, the TGI (OVCAR-8 ovarian) was > 100 µM, the TGI (T-47D breast) was > 100 µM and the TGI (M14 melanoma) was > 100 µM. The TGI (SF-268 CNS) was > 100 µM, the TGI (SNB-19 CNS) was > 100 µM and the TGI (OVCAR-3 ovarian) was > 100 µM. The TGI (MDA-MB-231 breast) was > 100 µM, the TGI (CCRF-CEM leukemia) was > 100 µM and the TGI (NCI/ADR-RES ovarian) was > 100 µM. The TGI (RXF 393 renal) was > 100 µM, the TGI (SK-MEL-28 melanoma) was > 100 µM and the TGI (SK-MEL-5 melanoma) was > 100 µM. The TGI (SNB-75 CNS) was > 100 µM and the TGI (KM12 colon) was > 100 µM.
